Legend:
6E10+-Aβ plaque = 6E10+-Aβ plaque burden in ADtg mouse brain sections; assay type: in vivo; settings: same brain sections (FIG. 11C)
Method: ADtg mice (10 months old) received subcutaneous injections of GA [also known as Cop-1 and Copaxone®; 100 μg in phosphate-buffered saline (PBS)] or PBS alone (control group) twice a week for 1 week and then once a week for 8 weeks. For evaluation of innate immune infiltration to the brain by flow cytometry, 10-month-old ADtg mice received subcutaneous injections of GA ([…] in PBS) or PBS alone twice a week for 1 week and then once a week for 3 weeks. At the end of the study, all mice were anaesthetized and then perfused with ice-cold PBS with 0.5 mM EDTA, after which their organs were collected and analyzed or fixed in 2.5% paraformaldehyde (Sigma-Aldrich), and cryoprotected with 30% sucrose for further histological analysis. CD115^+ monocytes from mice donors were isolated as previously reported (Koronyo et al., Brain: a journal of neurology 2015,138:2399-2422). […] For microscopic analysis, we used a Carl Zeiss Axio Imager Z1 fluorescence microscope equipped with ApoTome (Carl Zeiss MicroImaging, Inc.). […] The number and area (μm^2) of OPN+ cells, Iba1^+CD45^hi cells, GFAP^+ cells, Thio-S^+ amyloid-βplaques and 4G8^+ amyloid-βplaques were determined by examining four to six coronal sections per mouse at 150-μm intervals over an area covering both the hippocampal and cortical (including entorhinal and cingulate cortex) regions. […]

OPN = experiment: Western blot of OPN and its MMP-cleaved fragments in macrophages; assay type: cell-based, mouse; settings: Western blot band density (FIG. 16I-16J)
Method: MΦ^BM were lifted from each cell by 2 mM EDTA-PBS, collected in an Eppendorf tube, and centrifuged. Cell pellets were lysed in RIPA buffer (Thermo Scientific) and supplemented with a cocktail of protease inhibitors (Thermo Scientific). Protein concentration was determined using a BCA Protein Assay Kit (Thermo Scientific). Aliquots of protein samples were electrophoretically separated using 4-12% Bis-Tris gels (Invitrogen), then transferred to nitrocellulose membranes, blocked in Tris-buffered saline (TBS) containing 5% (w/v) non-fat dry milk, and hybridized with appropriate primary antibodies, including rabbit polyclonal OPN (Abcam), goat polyclonal OPN (R&D systems), and Actin (Abcam). Membranes were then incubated with the appropriate HRP-conjugated secondary antibody prior to development with chemiluminescent substrates. Densitometric analysis of blots was conducted using ImageJ software, and each experimental sample was normalized to Actin.
Next, MMP-9 expression and OPN proteolytic fragments were analyzed. […] OPN is a known substrate for MMPs (including MMP-9). A detailed analysis of OPN expression in macrophages was performed using a polyclonal antibody recognizing full-length OPN and its MMP-cleaved fragments, including the 32 kD form. […] Remarkably, the MMP-generated 32kD C-terminus-containing peptide was elevated 12-fold after GA treatment. […]

glatiramer acetate [GA] was tested, and the “6E10+-Aβ plaque burden compared with PBS controls” value (6E10+-Aβ plaque) was “substantial reduction” and the “elevation of MMP-generated 32kD C-terminus-containing OPN peptide” value (OPN) was 12 fold.
